The target of assay [1] is human SOS1 (loading of human K-Ras^G12C-GDP with fluorescent GTP-analog) (Homo sapiens, UniProt Q07889). The assay can be described thus: Biochemical assay 3: K-Ras^G12C activation assay by hSOS1 (HTRF). The settings on record: E-notation values; unit inferred; read-out: Assay 3 (KRAS-Activation) IC50.
The target in assay [2] is Epidermal Growth Factor Receptor (EGFR) (Homo sapiens (Human), UniProt P00533). The assay can be described thus: EGFR kinase assay (TR-FRET). It is filed as biochemical. The settings on record: read-out: EGFR-assay IC50. The method, boiled down: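 EGFR purified from A431 cells was preincubated with compound 15 min at 22° C in pH 7.0 Hepes buffer with MgCl2, MnCl2 and vanadate before reaction with a biotinylated peptide. After EDTA stop, phosphopeptide was detected by TR-FRET (anti-phosphotyrosine Tb-cryptate, streptavidin-XL665) as the 665/620 nm emission ratio.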

The mark [3] stands for this setting: E-notation values, unit inferred.

Read-outs that look alike come from different tables or passages of the source. Some results are limits rather than exact numbers.

Epidermal Growth Factor Receptor (EGFR), sequence (P00533 25-1210): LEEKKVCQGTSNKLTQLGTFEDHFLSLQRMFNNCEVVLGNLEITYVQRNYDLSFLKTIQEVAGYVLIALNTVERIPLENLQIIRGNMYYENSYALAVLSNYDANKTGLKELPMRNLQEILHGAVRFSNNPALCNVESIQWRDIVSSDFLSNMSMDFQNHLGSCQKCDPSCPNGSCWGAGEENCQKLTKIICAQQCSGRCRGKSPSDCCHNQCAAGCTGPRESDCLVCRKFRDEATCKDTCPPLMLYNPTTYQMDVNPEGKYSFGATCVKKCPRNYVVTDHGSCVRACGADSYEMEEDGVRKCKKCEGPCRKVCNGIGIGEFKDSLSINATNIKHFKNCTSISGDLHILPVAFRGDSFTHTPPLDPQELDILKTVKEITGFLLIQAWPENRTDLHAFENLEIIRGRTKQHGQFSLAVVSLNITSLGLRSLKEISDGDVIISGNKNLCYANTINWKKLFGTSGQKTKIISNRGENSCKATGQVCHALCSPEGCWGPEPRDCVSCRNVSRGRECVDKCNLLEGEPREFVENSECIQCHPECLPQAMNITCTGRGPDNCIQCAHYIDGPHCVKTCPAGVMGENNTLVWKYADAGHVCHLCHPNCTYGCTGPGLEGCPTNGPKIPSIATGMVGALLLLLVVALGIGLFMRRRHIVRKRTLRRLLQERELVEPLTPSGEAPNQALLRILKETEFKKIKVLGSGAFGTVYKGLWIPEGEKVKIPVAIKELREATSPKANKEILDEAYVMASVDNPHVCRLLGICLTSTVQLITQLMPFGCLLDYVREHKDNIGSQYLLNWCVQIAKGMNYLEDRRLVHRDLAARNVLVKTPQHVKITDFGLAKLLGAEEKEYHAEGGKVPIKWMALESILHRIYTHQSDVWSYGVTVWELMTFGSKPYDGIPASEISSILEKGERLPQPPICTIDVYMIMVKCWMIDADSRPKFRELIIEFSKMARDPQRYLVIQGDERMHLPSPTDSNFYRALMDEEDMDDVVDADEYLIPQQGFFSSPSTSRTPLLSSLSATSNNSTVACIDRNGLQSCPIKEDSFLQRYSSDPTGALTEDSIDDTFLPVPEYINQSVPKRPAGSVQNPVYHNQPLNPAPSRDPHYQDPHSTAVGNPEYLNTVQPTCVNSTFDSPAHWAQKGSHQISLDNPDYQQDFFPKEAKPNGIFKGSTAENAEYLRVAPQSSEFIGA

By IC50 is commonly meant the concentration that inhibits the measured activity by half. Consider `COc1cc2nc(C)nc(NC(C)c3cc(C)c(-c4cnc5n4CCC5)s3)c2cc1OC` (stereo not drawn) [Example 381, N-{1-[5-(6,7-dihydro-5H-pyrrolo[1,2-a]imidazol-3-yl)-4-methylthiophen-2-yl]ethyl}-6,7-dimethoxy-2-methylquinazolin-4-amine], for which the IC50 in assay [1] is 2.33 µM; in assay [2] (in μM) it was greater than 20 µM.

Turning to `COc1cc2nc(C)nc(NC(C)c3ccc(-c4ccc(F)cc4CNC(=O)CO)s3)c2cc1OC` (stereo not drawn) [Example 382, N-[2-(5-{1-[(6,7-dimethoxy-2-methylquinazolin-4-yl)amino]ethyl}thiophen-2-yl)-5-fluorobenzyl]-2-hydroxyacetamide], the figures for the IC50 in assay [1] and in assay [2] (in μM) were 0.748 µM and greater than 20 µM, respectively.

As for `COCC(=O)NCc1cc(F)ccc1-c1ccc(C(C)Nc2nc(C)nc3cc(OC)c(OC)cc23)s1` (stereo not drawn) [Example 383, N-[2-(5-{1-[(6,7-dimethoxy-2-methylquinazolin-4-yl)amino]ethyl}thiophen-2-yl)-5-fluorobenzyl]-2-methoxyacetamide], the IC50 in assay [1] was 5.11 µM; in assay [2] (in μM) it was greater than 20 µM.

For `COc1cc2nc(C)nc(NC(C)c3ccc(-c4cc(Cl)ccc4CNC(=O)OC(C)(C)C)s3)c2cc1OC` (stereo not drawn) [Example 387, tert-butyl [4-chloro-2-(5-{1-[(6,7-dimethoxy-2-methylquinazolin-4-yl)amino]ethyl}-thiophen-2-yl)benzyl]carbamate], the IC50 in assay [1] was 8.32 µM; in assay [2] (setting [3]) it was greater than 20 µM.

For `COc1cc2nc(C)nc(N[C@H](C)c3cccc(-c4ccnc(O)c4)c3)c2cc1OC` [Example 388, 4-(3-{(1R)-1-[(6,7-dimethoxy-2-methylquinazolin-4-yl)amino]ethyl}phenyl)pyridin-2-ol], the results for the IC50 in assay [1] and in assay [2] (setting [3]) were 0.757 µM and greater than 20 µM, respectively.

Regarding `COc1cc2nc(C)nc(NC(C)c3cccc(OCc4ccccc4)c3)c2cc1OC` (stereo not drawn) [Example 389, N-{1-[3-(benzyloxy)phenyl]ethyl}-6,7-dimethoxy-2-methylquinazolin-4-amine], the IC50 is 16.9 µM in assay [1] and greater than 20 µM in assay [2] (setting [3]).

Take `Cc1nc(N[C@H](C)c2cccc(Cl)c2)c2cc(C(C)(C)O)ccc2n1` [Example 392, 2-(4-{[(1R)-1-(3-chlorophenyl)ethyl]amino}-2-methylquinazolin-6-yl)propan-2-ol]: the IC50 is 1.52 µM in assay [1] and greater than 20 µM in assay [2] (setting [3]).

Take `COc1cc2nc(C)nc(N[C@H](C)c3cccc(-c4ccccc4CC(N)=O)c3)c2cc1OC` [Example 393, 2-(3′-{(1R)-1-[(6,7-dimethoxy-2-methylquinazolin-4-yl)amno]ethyl}biphenyl-2-yl)acetamide]: the IC50 in assay [1] is 1.04 µM; in assay [2] (setting [3]), greater than 20 µM.

In the case of `COc1cc2nc(C)nc(NC(C)c3ccc(-c4ccccc4CC(N)=O)s3)c2cc1OC` (stereo not drawn) [Example 394, 2-[2-(5-{1-[(6,7-dimethoxy-2-methylquinazolin-4-yl)amino]ethyl}thiophen-2-yl)phenyl]acetamide], the IC50 in assay [1] was 2.29 µM; in assay [2] (setting [3]), greater than 20 µM.

In the case of `COc1cc2nc(C)nc(NC(C)c3ccc(-c4ccc(O)nc4)s3)c2cc1OC` (stereo not drawn) [Example 395, 5-(5-{1-[(6,7-dimethoxy-2-methylquinazolin-4-yl)amino]ethyl}thiophen-2-yl)pyridin-2-ol], the IC50 worked out at 1.02 µM in assay [1] and 7.07 µM in assay [2] (setting [3]).

As for `COc1cc(C)c2nc(C)nc(N[C@H](C)c3cccc(Cl)c3)c2c1` [Example 396, N-[(1R)-1-(3-chlorophenyl)ethyl]-6-methoxy-2,8-dimethylquinazolin-4-amine], the IC50 in assay [1] is 3.13 µM; in assay [2] (setting [3]), greater than 20 µM.

`COc1cc2nc(C)nc(NC(C)c3ccc(-c4cccc(Cl)c4CN)s3)c2cc1OC` (stereo not drawn) [Example 397, N-[1-{5-[2-(aminomethyl)-3-chlorophenyl]thiophen-2-yl}ethyl]-6,7-dimethoxy-2-methylquinazolin-4-amine]: the values for the half-inhibitory concentration (IC50) in assay [1] and in assay [2] (setting [3]) were 0.249 µM and greater than 20 µM, respectively.

In the case of `COc1cc2nc(C)nc(NC(C)c3ccc(-c4ccc(Cl)cc4CN)s3)c2cc1OC` (stereo not drawn) [Example 398, N-[1-{5-[2-(aminomethyl)-4-chlorophenyl]thiophen-2-yl}ethyl]-6,7-dimethoxy-2-methylquinazolin-4-amine], the IC50 in assay [1] was 0.0721 µM; in assay [2] (setting [3]), greater than 20 µM.

For the compound `COc1cc2nc(C)nc(NC(C)c3cc(C)c(-c4ccc(F)cc4CN)s3)c2cc1OC` (stereo not drawn) [Example 399, N-(1-{5-[2-(aminomethyl)-4-fluorophenyl]-4-methyl-2-thienyl}ethyl)-6,7-dimethoxy-2-methylquinazolin-4-amine], the IC50 in assay [1] is 0.296 µM; in assay [2] (setting [3]) it was greater than 20 µM.

With `COc1cc2nc(C)nc(NC(C)c3cc(C)c(-c4ccccc4CN(C)C)s3)c2cc1OC` (stereo not drawn) [Example 400, N-[1-(5-{2-[(dimethylamino)methyl]phenyl}-4-methyl-2-thienyl)ethyl]-6,7-dimethoxy-2-methylquinazolin-4-amine], the values for the IC50 in assay [1] and in assay [2] (setting [3]) were 0.0766 µM and greater than 20 µM, respectively.

As to `COc1cc2nc(C)nc(NC(C)c3cc(C)c(-c4ccccc4CN(C)CCO)s3)c2cc1OC` (stereo not drawn) [Example 401, 2-{[2-(5-{1-[(6,7-dimethoxy-2-methylquinazolin-4-yl)amino]ethyl}-3-methyl-2-thienyl)benzyl](methyl)amino}ethanol], the IC50 in assay [1] is 0.0823 µM; in assay [2] (setting [3]), greater than 20 µM.

On to `CNCc1ccccc1-c1sc(C(C)Nc2nc(C)nc3cc(OC)c(OC)cc23)cc1C` (stereo not drawn) [Example 402, 6,7-di methoxy-2-methyl-N-[1-(4-methyl-5-{2-[(methylamino)methyl]phenyl}thiophen-2-yl)ethyl]quinazolin-4-amine], for which the IC50 is 0.0981 µM in assay [1] and greater than 20 µM in assay [2] (setting [3]).

On to `COc1cc2nc(C)nc(NC(C)c3ccc(-c4ccccc4C(O)CO)s3)c2cc1OC` (stereo not drawn) [Example 403], for which the IC50 in assay [1] is 0.632 µM; in assay [2] (setting [3]) it was greater than 20 µM.

For the compound `Cc1ccc2nc(C)nc(N[C@H](C)c3cccc(Cl)c3)c2c1` [Example 404, N-[(1R)-1-(3-chlorophenyl)ethyl]-2,6-dimethylquinazolin-4-amine], the IC50 in assay [1] is 9.3 µM; in assay [2] (setting [3]), greater than 20 µM.

Regarding `Cc1nc(N[C@H](C)c2cccc(Cl)c2)c2cc(-c3cn[nH]c3)ccc2n1` [Example 405, N-[(1R)-1-(3-chlorophenyl)ethyl]-2-methyl-6-(1H-pyrazol-4-yl)quinazolin-4-amine], the IC50 in assay [1] is 1.31 µM; in assay [2] (setting [3]) it was greater than 20 µM.

As to `Cc1nc(N[C@H](C)c2cccc(Cl)c2)c2cc(-c3cnn(C)c3)ccc2n1` [Example 406, N-[(1R)-1-(3-chlorophenyl)ethyl]-2-methyl-6-(1-methyl-1H-pyrazol-4-yl)quinazolin-4-amine], the IC50 in assay [1] was 0.855 µM; in assay [2] (setting [3]), greater than 20 µM.

On to `Cc1nc(N[C@H](C)c2cccc(Cl)c2)c2cc(C3CC3)ccc2n1` [Example 407, N-[(1R)-1-(3-chlorophenyl)ethyl]-6-cyclopropyl-2-methylquinazolin-4-amine], for which the IC50 was 2.14 µM in assay [1] and greater than 20 µM in assay [2] (setting [3]).

With `COc1cc2nc(C)nc(NC(C)c3ccc(-c4c(Cl)cccc4CNC(=O)OC(C)(C)C)s3)c2cc1OC` (stereo not drawn) [Example 408, tert-butyl [3-chloro-2-(5-{1-[(6,7-dimethoxy-2-methylquinazolin-4-yl)amino]ethyl}thiophen-2-yl)benzyl]carbamate], the IC50 was 1.02 µM in assay [1] and greater than 20 µM in assay [2] (setting [3]).

Take `COc1cc2nc(C)nc(NC(C)c3ccc(-c4c(Cl)cccc4CN)s3)c2cc1OC` (stereo not drawn) [Example 409, N-[1-{5-[2-(aminomethyl)-6-chlorophenyl]thiophen-2-yl}ethyl]-6,7-dimethoxy-2-methylquinazolin-4-amine]: the IC50 is 0.0316 µM in assay [1] and greater than 20 µM in assay [2] (setting [3]).

For the compound `COc1cc2nc(C)nc(NC(C)c3ccc(-c4ccnc(O)c4)s3)c2cc1OC` (stereo not drawn) [Example 410, 4-(5-{1-[(6,7-dimethoxy-2-methylquinazolin-4-yl)amino]ethyl}-2-thienyl)pyridin-2-ol], the IC50 in assay [1] and in assay [2] (setting [3]) was greater than 20 µM each time.

Regarding `COc1cc2nc(C)nc(NC(C)c3ccc(-c4ccccc4C4CC(=O)N4)s3)c2cc1OC` (stereo not drawn) [Example 411, 4-[2-(5-{1-[(6,7-dimethoxy-2-methylquinazolin-4-yl)amino]ethyl}thiophen-2-yl)phenyl]azetidin-2-one], the IC50 in assay [1] and in assay [2] (setting [3]) was greater than 20 µM throughout.

In the case of `COc1cc2nc(C)nc(NC(C)c3ccc(-c4ccc(C#N)cc4CN(C)C)s3)c2cc1OC` (stereo not drawn) [Example 413, 4-(5-{1-[(6,7-dimethoxy-2-methylquinazolin-4-yl)amino]ethyl}thiophen-2-yl)-3-[(dimethylamino)methyl]benzonitrile], the values for the IC50 in assay [1] and in assay [2] (setting [3]) were 0.213 µM and greater than 20 µM, respectively.

Consider `Cc1nc(NC(C)c2ccc(Br)s2)c2cc(N3CCC(N(C)C)C3)ccc2n1` (stereo not drawn) [Example 414, N-[1-(5-bromothiophen-2-yl)ethyl]-6-[3-(dimethylamino)pyrrolidin-1-yl]-2-methylquinazolin-4-amine], for which the figures for the IC50 in assay [1] and in assay [2] (setting [3]) were 1.46 µM and greater than 20 µM, respectively.

On to `Cc1nc(NC(C)c2ccc(Br)s2)c2cc(N3CCN(C)CC3)ccc2n1` (stereo not drawn) [Example 416, N-[1-(5-bromothiophen-2-yl)ethyl]-2-methyl-6-(4-methylpiperazin-1-yl)quinazolin-4-amine], for which the values for the IC50 in assay [1] and in assay [2] (setting [3]) were 1.14 µM and greater than 20 µM, respectively.

For the compound `Cc1nc(NC(C)c2ccc(-c3ccccc3CN(C)C)s2)c2cc(N3CCN(C)CC3)ccc2n1` (stereo not drawn) [Example 417, N-[1-(5-{2-[(dimethylamino)methyl]phenyl}thiophen-2-yl)ethyl]-2-methyl-6-(4-methylpiperazin-1-yl)quinazolin-4-amine], the concentration for half-maximal inhibition (IC50) in assay [1] is 0.0353 µM; in assay [2] (setting [3]), greater than 20 µM.

The values are drawn from patent US20240083857A1, “2-Methyl-Quinazolines” (Bayer Pharma Aktiengesellschaft, priority 2017, published 2024).
